Results: PubChem BioAssay AID2060891 (Molecular Pharmacology Branch, DTP, NCI, 2025)

Tested on: K98450-129-R-PDC complex spheroid growth, percent test/control
Experiment: Anticancer human tumor K98450-129-R-PDC patient-derived colon adenocarcinoma cell line growth inhibition [RAS]
Details: for IC50: curve of first compound; for viability, T/C: stronger effect = lower value
Procedure, shortened: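 Multi-cell-type spheroids: tumor cells plus HUVEC endothelial cells and mesenchymal stem cells. RAS-pathway inhibitors were combined with targeted agents, each dosed in half-log steps down from clinical Cmax, or from 10 microM when Cmax was unknown.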
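Note: spheroids exposed to agents for seven days before the viability readout.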
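Throughout, for viability, T/C: luminescence used as a proxy for viable cell amount.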

CC(=O)OC12COC1CC(O)C1(C)C(=O)C(O)C3=C(C)C(OC(=O)C(O)C(NC(=O)OC(C)(C)C)c4ccccc4)CC(O)(C(OC(=O)c4ccccc4)C21)C3(C)C (centres undefined) + C#Cc1c(F)ccc2cc(O)cc(-c3ncc4c(N5CC6CCC(C5)N6)nc(OCC56CCCN5CC(F)C6)nc4c3F)c12
IC50 (second compound 0.0316 µM): 0.415 µM | IC50 (second compound 0.1 µM): 0.428 µM | IC50 (second compound 0.316 µM): 0.482 µM | IC50 (second compound 1 µM): 0.466 µM | IC50 (second compound 3.16 µM): 0.46 µM | IC50 (second compound 10 µM): 0.401 µM | viability, T/C (second compound 0.0316 µM, first compound 0.0316 µM): 105% | viability, T/C (second compound 0.0316 µM, first compound 0.1 µM): 98% | viability, T/C (second compound 0.0316 µM, first compound 0.316 µM): 54.7% | viability, T/C (second compound 0.0316 µM, first compound 1 µM): 34.7% | viability, T/C (second compound 0.0316 µM, first compound 3.16 µM): 33.1% | viability, T/C (second compound 0.0316 µM, first compound 10 µM): 35.2% | viability, T/C (second compound 0.1 µM, first compound 0.0316 µM): 109% | viability, T/C (second compound 0.1 µM, first compound 0.1 µM): 103% | viability, T/C (second compound 0.1 µM, first compound 0.316 µM): 54.7% | viability, T/C (second compound 0.1 µM, first compound 1 µM): 38% | viability, T/C (second compound 0.1 µM, first compound 3.16 µM): 32.8% | viability, T/C (second compound 0.1 µM, first compound 10 µM): 34.8% | viability, T/C (second compound 0.316 µM, first compound 0.0316 µM): 105% | viability, T/C (second compound 0.316 µM, first compound 0.1 µM): 103% | viability, T/C (second compound 0.316 µM, first compound 0.316 µM): 59% | viability, T/C (second compound 0.316 µM, first compound 1 µM): 35.5% | viability, T/C (second compound 0.316 µM, first compound 3.16 µM): 32.4% | viability, T/C (second compound 0.316 µM, first compound 10 µM): 33.4% | viability, T/C (second compound 1 µM, first compound 0.0316 µM): 101% | viability, T/C (second compound 1 µM, first compound 0.1 µM): 101% | viability, T/C (second compound 1 µM, first compound 0.316 µM): 57.9% | viability, T/C (second compound 1 µM, first compound 1 µM): 36.6% | viability, T/C (second compound 1 µM, first compound 3.16 µM): 32.6% | viability, T/C (second compound 1 µM, first compound 10 µM): 32.1% | viability, T/C (second compound 3.16 µM, first compound 0.0316 µM): 93.2% | viability, T/C (second compound 3.16 µM, first compound 0.1 µM): 97.1% | viability, T/C (second compound 3.16 µM, first compound 0.316 µM): 57.9% | viability, T/C (second compound 3.16 µM, first compound 1 µM): 35% | viability, T/C (second compound 3.16 µM, first compound 3.16 µM): 34.2% | viability, T/C (second compound 3.16 µM, first compound 10 µM): 31.9% | viability, T/C (second compound 10 µM, first compound 0.0316 µM): 86.1% | viability, T/C (second compound 10 µM, first compound 0.1 µM): 87.8% | viability, T/C (second compound 10 µM, first compound 0.316 µM): 55% | viability, T/C (second compound 10 µM, first compound 1 µM): 31.9% | viability, T/C (second compound 10 µM, first compound 3.16 µM): 30.6% | viability, T/C (second compound 10 µM, first compound 10 µM): 29%

CC(C)NCC(C(=O)N1CCN(c2ncnc3c2C(C)CC3O)CC1)c1ccc(Cl)cc1 (centres undefined) + CCn1c(-c2cc(N3CCN(C)CC3)cnc2C(C)OC)c2c3cc(ccc31)-c1csc(n1)CC(NC(=O)C1CC1C)C(=O)N1CCCC(N1)C(=O)OCC(C)(C)C2
IC50 (second compound 0.000949 µM): > 10 µM | IC50 (second compound 0.003 µM): > 10 µM | IC50 (second compound 0.00949 µM): > 10 µM | IC50 (second compound 0.03 µM): < 0.0316 µM | IC50 (second compound 0.0949 µM): < 0.0316 µM | IC50 (second compound 0.3 µM): < 0.0316 µM | viability, T/C (second compound 0.000949 µM, first compound 0.0316 µM): 104% | viability, T/C (second compound 0.000949 µM, first compound 0.1 µM): 93.3% | viability, T/C (second compound 0.000949 µM, first compound 0.316 µM): 89.9% | viability, T/C (second compound 0.000949 µM, first compound 1 µM): 73.3% | viability, T/C (second compound 0.000949 µM, first compound 3.16 µM): 100% | viability, T/C (second compound 0.000949 µM, first compound 10 µM): 89.9% | viability, T/C (second compound 0.003 µM, first compound 0.0316 µM): 90.7% | viability, T/C (second compound 0.003 µM, first compound 0.1 µM): 80.8% | viability, T/C (second compound 0.003 µM, first compound 0.316 µM): 87.1% | viability, T/C (second compound 0.003 µM, first compound 1 µM): 76.5% | viability, T/C (second compound 0.003 µM, first compound 3.16 µM): 75.3% | viability, T/C (second compound 0.003 µM, first compound 10 µM): 79.7% | viability, T/C (second compound 0.00949 µM, first compound 0.0316 µM): 66.7% | viability, T/C (second compound 0.00949 µM, first compound 0.1 µM): 67% | viability, T/C (second compound 0.00949 µM, first compound 0.316 µM): 70% | viability, T/C (second compound 0.00949 µM, first compound 1 µM): 74.5% | viability, T/C (second compound 0.00949 µM, first compound 3.16 µM): 77.4% | viability, T/C (second compound 0.00949 µM, first compound 10 µM): 67.5% | viability, T/C (second compound 0.03 µM, first compound 0.0316 µM): 48.7% | viability, T/C (second compound 0.03 µM, first compound 0.1 µM): 44.8% | viability, T/C (second compound 0.03 µM, first compound 0.316 µM): 52.7% | viability, T/C (second compound 0.03 µM, first compound 1 µM): 47.7% | viability, T/C (second compound 0.03 µM, first compound 3.16 µM): 54.7% | viability, T/C (second compound 0.03 µM, first compound 10 µM): 46.9% | viability, T/C (second compound 0.0949 µM, first compound 0.0316 µM): 19% | viability, T/C (second compound 0.0949 µM, first compound 0.1 µM): 24.3% | viability, T/C (second compound 0.0949 µM, first compound 0.316 µM): 17.6% | viability, T/C (second compound 0.0949 µM, first compound 1 µM): 17.8% | viability, T/C (second compound 0.0949 µM, first compound 3.16 µM): 16.2% | viability, T/C (second compound 0.0949 µM, first compound 10 µM): 11.2% | viability, T/C (second compound 0.3 µM, first compound 0.0316 µM): 11.1% | viability, T/C (second compound 0.3 µM, first compound 0.1 µM): 12.6% | viability, T/C (second compound 0.3 µM, first compound 0.316 µM): 12.5% | viability, T/C (second compound 0.3 µM, first compound 1 µM): 10.1% | viability, T/C (second compound 0.3 µM, first compound 3.16 µM): 9.61% | viability, T/C (second compound 0.3 µM, first compound 10 µM): 7.13%
